Experimental data taken from patent publication US11066386B2, “CGRP receptor antagonists” (Eli Lilly and Company, priority 2017, dated 2021).
Like-named read-outs stand apart in the source and are kept apart here.

Columns and labels:
[1] = Rat plasma and brain homogenate protein binding by equilibrium dialysis; assay type: in vitro ADME
Protocol: Determination of plasma and brain protein binding: Rat plasma and brain homogenate protein in vitro binding is determined using equilibrium dialysis, as described elsewhere [Zamek-Gliszczynski et al., J Pharm Sci, 101:1932-1940, 2012]. The results are reported as fraction unbound in plasma (fu,plasma) and brain (fu,brain), which are then utilized to calculate Kp,uu,brain, as described in Table 2. Rat fu,plasma and fu,brain of the compound of Example 1 are determined to be 0.277 and 0.126, respectively.

[2] = molecular target: T1, hCGRP (human calcitonin gene-related peptide) receptor (Homo sapiens, UniProt O60894+Q16602); experiment: Inhibition of cAMP production by CGRP receptor antagonists (HTRF) in SK-N-MC cells; assay type: cell-based; conditions: human CGRP 0.8 nM as agonist, mean ±SEM, n=16, read-out: Kb measured at human CGRP
T1 construct: Cultured SK-N-MC neuroblastoma cells that endogenously express the hCGRP receptor (ATCC); host or cells: SK-N-MC neuroblastoma cells
T1 sequence (Q16602 23-461): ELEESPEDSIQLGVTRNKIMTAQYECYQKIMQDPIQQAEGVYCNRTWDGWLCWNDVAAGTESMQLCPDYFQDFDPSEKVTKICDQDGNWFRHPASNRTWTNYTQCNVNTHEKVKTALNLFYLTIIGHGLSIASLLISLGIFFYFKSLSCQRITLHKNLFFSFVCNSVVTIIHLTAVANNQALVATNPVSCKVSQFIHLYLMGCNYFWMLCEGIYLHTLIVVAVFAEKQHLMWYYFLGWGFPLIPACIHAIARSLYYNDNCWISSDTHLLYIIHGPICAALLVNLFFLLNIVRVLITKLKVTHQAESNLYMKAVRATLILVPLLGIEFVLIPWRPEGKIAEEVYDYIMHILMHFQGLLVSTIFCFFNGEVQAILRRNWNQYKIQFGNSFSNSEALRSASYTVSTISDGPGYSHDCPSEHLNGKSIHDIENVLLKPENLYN
T1 sequence (O60894 27-148): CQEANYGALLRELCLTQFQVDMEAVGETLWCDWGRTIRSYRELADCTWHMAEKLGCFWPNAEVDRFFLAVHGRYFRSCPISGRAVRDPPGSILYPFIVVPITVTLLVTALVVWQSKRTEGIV
Description: Inhibition of cAMP Production by CGRP Receptor Antagonists
The hCGRP (human calcitonin gene-related peptide) receptor is functionally coupled to the Gas proteins. Stimulation of hCGRP results in an increased synthesis of intracellular cAMP and can be blocked by the addition of receptor antagonists. Receptor activity is thus a reflection of the amount of cAMP present within cells which can be detected using standard in vitro technology. […]
Data Analysis: The amount of intracellular cAMP is quantitated using HTRF technology (Cisbio) as per vendor instructions. […] The HTRF signal is immediately detected using an ENVISION® plate reader (Perkin-Elmer) to calculate the ratio of fluorescence at […]. […] Relative EC50 values are calculated from the top-bottom range of the concentration response curve using a four-parameter logistic curve fitting program (ACTIVITYBASE® v5.3.1.22 or GENEDATA SCREENER® v12.0.4), and Kb values are estimated as agonist-corrected IC50 values using the equation: Kb=(IC50)[1+([Agonist]/EC50)]. […]

[3] = In vivo determination of unbound brain-to-plasma partition coefficient (Kp,uu,brain) in rats; conditions: 10 mg/kg oral; for concentration at 0.5 h / concentration at 2 h: male, Sprague-Dawley, oral, 10 mg/kg
Protocol: In Vivo Determination of Unbound Brain-to-Plasma Partition Coefficient (Kp,uu,brain) in Rats
Unbound brain-to-plasma partition coefficient (Kp,uu,brain) is one of the key pharmacokinetic parameter for evaluating a compound's ability to cross the blood-brain barrier (BBB) (Hammarlund-Udenaes, M.; Friden, M.; Syvanen, S.; Gupta, A. On the Rate and Extent of Drug Delivery to the Brain. Pharm. Res. 2008, 25 (8), 1737-1750).
Study populations: Animal studies are performed under protocols approved by the Covance Institutional Animal Care and Use Committee. Male Sprague-Dawley rats weighing 250-350 g are obtained from Harlan Sprague Dawley Inc. (Indianapolis, Ind.). Animals have access to food and water ad libitum before and during the study.
Dose administration: Animals each receive 10 mg/kg of the CGRP receptor antagonist compound of Example 1, administered orally in 10 ml/kg of hydroxyethylcellulose 1% w/v/polysorbate 80 0.25% v/v/Antifoam 1510-US 0.05% v/v/in purified water (probe sonicated).
Pharmacokinetic sampling: Three animals per time point are used. The blood (by cardiac puncture) and brain samples are collected at 0.5 and 2 h post dose. The blood samples are treated with K3-EDTA anticoagulant, and plasma is obtained by centrifugation at 1600 g for 10 minutes. The brain samples are weighed and homogenized, without perfusion. All samples are stored at −70° C. until analysis by LC-MS/MS to determine the concentration of the compound of Example 1 in plasma and brain at each time point.
Kp,uu,brain is calculated for each time point from the expression below where individual components are derived from a combination of in vitro and in vivo measurements carried out as described above:
[formula] where Ctotal,brain, Cu,brain, Ctotal,plasma and Cu,plasma are total and unbound brain and plasma concentrations, and fu,brain and fu,plasma are fractions unbound in brain and plasma, respectively.

[4] = molecular target: T2, ABCB1, Human P-Glycoprotein (Pgp) (Homo sapiens, UniProt P08183); experiment: In vitro determination of efflux by Pgp, bi-directional transport across MDCKII cells; assay type: in vitro ADME; conditions: MDCKII cells expressing human ABCB1, 5 μM substrate, 60 min
T2 construct: host or cells: MDCKII cells
T2 sequence (P08183 whole entry): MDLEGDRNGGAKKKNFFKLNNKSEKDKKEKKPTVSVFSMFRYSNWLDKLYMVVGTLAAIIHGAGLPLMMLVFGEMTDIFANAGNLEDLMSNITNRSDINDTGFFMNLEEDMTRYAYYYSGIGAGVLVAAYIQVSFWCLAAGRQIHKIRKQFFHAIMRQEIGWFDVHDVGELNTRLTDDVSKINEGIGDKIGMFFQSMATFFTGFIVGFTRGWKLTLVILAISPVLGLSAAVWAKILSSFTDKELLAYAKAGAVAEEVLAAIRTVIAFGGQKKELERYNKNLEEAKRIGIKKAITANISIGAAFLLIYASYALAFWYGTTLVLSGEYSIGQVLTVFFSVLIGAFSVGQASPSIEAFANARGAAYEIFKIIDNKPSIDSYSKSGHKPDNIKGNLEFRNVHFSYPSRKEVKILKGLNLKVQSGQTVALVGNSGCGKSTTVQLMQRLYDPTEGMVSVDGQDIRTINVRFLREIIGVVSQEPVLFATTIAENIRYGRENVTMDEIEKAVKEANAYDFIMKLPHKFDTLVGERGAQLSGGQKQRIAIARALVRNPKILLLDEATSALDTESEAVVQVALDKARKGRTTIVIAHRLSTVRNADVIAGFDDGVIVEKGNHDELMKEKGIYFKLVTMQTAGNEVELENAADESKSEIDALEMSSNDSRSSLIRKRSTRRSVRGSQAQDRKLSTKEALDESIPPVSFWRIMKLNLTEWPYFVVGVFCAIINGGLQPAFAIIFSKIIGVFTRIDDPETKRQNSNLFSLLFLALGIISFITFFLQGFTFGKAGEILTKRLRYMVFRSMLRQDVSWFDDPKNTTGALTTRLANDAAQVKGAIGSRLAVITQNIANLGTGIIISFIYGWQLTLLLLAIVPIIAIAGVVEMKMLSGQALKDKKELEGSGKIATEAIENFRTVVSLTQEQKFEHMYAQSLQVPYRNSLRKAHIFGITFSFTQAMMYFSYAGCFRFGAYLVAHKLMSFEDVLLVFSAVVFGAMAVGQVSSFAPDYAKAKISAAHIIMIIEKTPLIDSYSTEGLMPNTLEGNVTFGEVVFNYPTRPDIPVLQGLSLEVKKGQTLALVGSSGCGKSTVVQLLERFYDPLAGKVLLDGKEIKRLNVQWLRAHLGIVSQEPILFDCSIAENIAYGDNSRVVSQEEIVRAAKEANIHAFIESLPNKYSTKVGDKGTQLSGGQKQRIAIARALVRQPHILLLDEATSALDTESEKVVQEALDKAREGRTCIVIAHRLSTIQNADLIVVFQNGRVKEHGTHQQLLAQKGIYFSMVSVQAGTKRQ
Protocol: In Vitro Determination of Efflux by ABCB1, Human P-Glycoprotein (Pgp)
Cell Culture: MDCKII cells stably expressing human wild-type ABCB1 (Pgp) are obtained from the Netherlands Cancer Institute (Amsterdam, The Netherlands). MDCK cells are maintained as described previously (Desai et al., Mol Pharm 10:1249-1261, 2013).
Bi-directional transport across MDCK cells: The assay is essentially conducted as described previously (Desai et al., Mol Pharm 10:1249-1261, 2013). Transport is measured in both directions across uninhibited and inhibited cell monolayers using a substrate concentration of 5 μM diluted from a 10 mM DMSO stock solution (final DMSO concentration of 0.05%) and a single 60-min time interval. […] The apparent permeability coefficients (Papp) are estimated as the slope of the mass transported per 60 min relative to the total recovered mass. The basal-to-apical (B-A)/apical-to-basal (A-B) Papp ratios are calculated in the absence or presence of inhibitor in each cell line for net efflux ratio (NER).

fraction unbound in brain (fu,brain) ([1]; rat brain homogenate): 0.126
fraction unbound ([1]; rat plasma, read-out: fraction unbound in plasma (fu,plasma)): 0.277
Kb [2]: 0.31 ± 0.21 nM
Unbound brain conc. (Cu,brain) ([3]; male Sprague-Dawley rats, 0.5 hr, using rat fu,brain 0.126, mean +/- SD): 46 ± 9 nM
Unbound brain conc. (Cu,brain) ([3]; male Sprague-Dawley rats, 2.0 hr, using rat fu,brain 0.126, mean +/- SD): 51 ± 10 nM
concentration at 0.5 h ([3]; rat, brain, 0.5 hr, mean +/- SD, read-out: Total brain conc. (Ctotal,brain)): 365 ± 67 nM
concentration at 0.5 h ([3]; rat, brain, 0.5 hr, using rat fu,brain 0.126, mean +/- SD, read-out: Unbound brain conc. (Cu,brain)): 46 ± 9 nM
concentration at 2 h ([3]; rat, brain, 2.0 hr, mean +/- SD, read-out: Total brain conc. (Ctotal,brain)): 405 ± 83 nM
concentration at 2 h ([3]; rat, brain, 2.0 hr, using rat fu,brain 0.126, mean +/- SD, read-out: Unbound brain conc. (Cu,brain)): 51 ± 10 nM
concentration at 0.5 h ([3]; rat, plasma, 0.5 hr, mean +/- SD, read-out: Total plasma conc. (Ctotal,plasma)): 497 ± 69 nM
concentration at 0.5 h ([3]; rat, plasma, 0.5 hr, using rat fu,plasma 0.277, mean +/- SD, read-out: Unbound plasma conc. (Cu,plasma)): 138 ± 19 nM
concentration at 2 h ([3]; rat, plasma, 2.0 hr, mean +/- SD, read-out: Total plasma conc. (Ctotal,plasma)): 531 ± 129 nM
concentration at 2 h ([3]; rat, plasma, 2.0 hr, using rat fu,plasma 0.277, mean +/- SD, read-out: Unbound plasma conc. (Cu,plasma)): 147 ± 36 nM
Kp uu at 0.5 h ([3]; rat, brain/plasma, male Sprague-Dawley rats, 0.5 hr, mean +/- SD): 0.34 ± 0.05
Kp uu at 2 h ([3]; rat, brain/plasma, male Sprague-Dawley rats, 2.0 hr, mean +/- SD): 0.35 ± 0.01
net efflux ratio (NER) for efflux by Pgp [4]: 4.1
SMILES: Cc1cc(OCCc2ccc([C@@H](C)[C@]3(C)CC(=O)NC3=O)cc2)cc(C)n1 [Example 1, (3S)-3-[(1R)-1-[4-[2-[(2,6-dimethyl-4-pyridyl)oxy]ethyl]phenyl]ethyl]-3-methyl-pyrrolidine-2,5-dione]
